According to ChEMBL document CHEMBL6092159, “Design, synthesis, and biological evaluation of novel iNOS inhibitors as potent neuroprotective agents for ischemic stroke” (Eur J Med Chem, 2024):
≈ marks a conversion by molar mass, not a printed value. Calls of active or inactive are those of the source. The rule behind the calls is not given here.

How the values were obtained:
SH-SY5Y [1] = experiment: Neuroprotective effect in human SH-SY5Y cells assessed as reduction in OGD/R-induced damage by measuring increase in cell viability at 10 uM incubated for 3 hrs followed by washout cells cultured in glucose and FBS-free medium measured after 24 hrs by CCK8 assay; assay type: functional, cell-based
[2] = biological target: Nitric oxide synthase, inducible (Homo sapiens, UniProt P35228); experiment: Inhibition of iNOS (unknown origin) assessed as nitric oxide production at 1 uM by hemoglobin capture assay
Sequence of Nitric oxide synthase, inducible (P35228 whole entry): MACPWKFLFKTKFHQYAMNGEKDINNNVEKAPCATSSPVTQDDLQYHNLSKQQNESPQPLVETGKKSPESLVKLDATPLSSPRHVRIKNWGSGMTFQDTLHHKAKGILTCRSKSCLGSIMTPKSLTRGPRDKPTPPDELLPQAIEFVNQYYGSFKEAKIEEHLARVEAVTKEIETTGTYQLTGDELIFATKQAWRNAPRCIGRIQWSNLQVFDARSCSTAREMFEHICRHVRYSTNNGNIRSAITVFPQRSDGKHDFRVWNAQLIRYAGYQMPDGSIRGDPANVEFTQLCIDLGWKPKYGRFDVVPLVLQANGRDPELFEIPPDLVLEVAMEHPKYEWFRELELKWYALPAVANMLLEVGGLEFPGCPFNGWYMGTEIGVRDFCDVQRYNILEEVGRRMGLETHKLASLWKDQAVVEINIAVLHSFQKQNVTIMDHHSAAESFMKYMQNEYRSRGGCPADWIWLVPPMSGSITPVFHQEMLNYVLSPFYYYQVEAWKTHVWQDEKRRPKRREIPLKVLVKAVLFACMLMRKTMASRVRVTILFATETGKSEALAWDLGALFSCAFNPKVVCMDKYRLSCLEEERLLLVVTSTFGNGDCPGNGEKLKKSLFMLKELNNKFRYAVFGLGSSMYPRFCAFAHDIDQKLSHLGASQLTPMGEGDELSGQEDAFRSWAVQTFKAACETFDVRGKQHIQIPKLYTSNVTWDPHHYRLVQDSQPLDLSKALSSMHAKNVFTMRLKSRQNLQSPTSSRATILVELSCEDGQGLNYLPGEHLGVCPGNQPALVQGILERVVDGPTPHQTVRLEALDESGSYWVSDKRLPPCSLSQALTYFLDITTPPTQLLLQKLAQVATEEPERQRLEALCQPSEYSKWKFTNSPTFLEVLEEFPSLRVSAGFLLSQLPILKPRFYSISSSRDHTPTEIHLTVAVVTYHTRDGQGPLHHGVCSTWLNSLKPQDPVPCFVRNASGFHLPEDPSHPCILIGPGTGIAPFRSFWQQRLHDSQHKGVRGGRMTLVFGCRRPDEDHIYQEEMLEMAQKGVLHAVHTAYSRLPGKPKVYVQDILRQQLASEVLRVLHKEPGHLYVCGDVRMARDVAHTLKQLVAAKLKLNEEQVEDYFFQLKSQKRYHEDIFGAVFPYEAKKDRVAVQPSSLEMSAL

SH-SY5Y [3] = experiment: […] effect in human SH-SY5Y cells assessed as reduction in OGD/R-induced caspase-3 activity using substrate GreenNuc Caspase-3 Substrate is a peptide DEVD coupled with a DNA green fluorescent dye at 1 uM incubated for 3 hrs followed by washout cells cultured in glucose and FBS-free medium measured after 24 hrs by […] assay; assay type: functional, cell-based
Rattus norvegicus [4] = experiment: Anti-cerebral ischemia activity in rat tMCAO (transient middle cerebral artery occlusion) model assessed as reduction in cerebral infarct area in presence of 1400W at 5 mg/kg, iv treated after 2 hrs ischemia followed by reperfusion measured after 24 hrs of post-reperfusion by single-dose experiment; assay type: functional, organism-based; details: time 26.0 hrs
[5] = Solubility of the compound by HPLC based dissolution test; assay type: physicochemical
Rattus norvegicus [6] = experiment: (§1) Anti-cerebral ischemia activity in rat tMCAO (transient middle cerebral artery occlusion) model assessed as reduction in cerebral infarct area at 5 mg/kg, iv treated after 2 hrs ischemia followed by reperfusion measured after 24 hrs of post-reperfusion by single-dose experiment; assay type: functional, organism-based; details: time 26.0 hrs
Rattus norvegicus [7] = experiment: as §1, with “24 to 72” for “24”, “TTC staining based multiple-dose” for “single-dose”; assay type: functional, organism-based; details: time 26-74 hrs
SH-SY5Y [8] = experiment: Antioxidant activity in human SH-SY5Y cells assessed as reduction in OGD/R-induced LDH level at 1 uM incubated for 3 hrs followed by washout cells cultured in glucose and FBS-free medium measured after 24 hrs by colorimetric assay; assay type: functional, cell-based
SH-SY5Y [9] = experiment: Antioxidant activity in human SH-SY5Y cells assessed as reduction in OGD/R-induced ROS level at 1 uM incubated for 3 hrs followed by washout cells cultured in glucose and FBS-free medium measured after 24 hrs by DCFH-DA probe based fluorescence microscopy assay; assay type: functional, cell-based
[10] = Clearance in Sprague-Dawley rat at 10 mg/kg, iv measured after 24 hrs by LC-MS/MS analysis; assay type: ADME, organism-based; details: in vivo
[11] = Tmax in Sprague-Dawley rat at 10 mg/kg, iv measured after 24 hrs by LC-MS/MS analysis; assay type: ADME, organism-based; details: in vivo
[12] = Ratio of drug concentration male Sprague-Dawley rat brain to blood at 5 mg/kg, iv measured after 24 hrs by LC-MS/MS analysis; assay type: ADME, organism-based
[13] = Apparent volume of distribution in Sprague-Dawley rat at 10 mg/kg, iv measured after 24 hrs by LC-MS/MS analysis; assay type: ADME, organism-based; details: in vivo, read-out: Vz
Rattus norvegicus [14] = experiment: as §1, with “9.61” for “5”, “measuring modified neurological severity score (mNSS) test based multiple-dose” for “single-dose”, “experiment relative to MCAO group” for “experiment”; assay type: functional, organism-based
BV-2 = experiment: Neuroprotective effect in mouse BV-2 cells assessed as reduction in OGD/R-induced damage by measuring increase in cell viability at 10 uM incubated for 3 hrs followed by washout cells cultured in glucose and FBS-free medium measured after 24 hrs by CCK8 assay; assay type: functional, cell-based
Rattus norvegicus [15] = experiment: as §1, with “9.61” for “5”, “measuring turn left counts test based multiple-dose” for “single-dose”, “experiment relative to MCAO group” for “experiment”; assay type: functional, organism-based
Rattus norvegicus [16] = experiment: (§2) Anti-cerebral ischemia activity in rat tMCAO (transient middle cerebral artery occlusion) model assessed as reduction in cerebral infarct area at 9.61 mg/kg, iv treated after 2 hrs ischemia followed by reperfusion measured after 24 hrs of post-reperfusion by single-dose experiment; assay type: functional, organism-based; details: time 26.0 hrs
Rattus norvegicus [17] = experiment: as §2, with “72” for “24”, “measuring modified neurological severity score (mNSS) test based multiple-dose” for “single-dose”, “experiment relative to MCAO group” for “experiment”; assay type: functional, organism-based
Rattus norvegicus [18] = experiment: as §2, with “72” for “24”, “measuring turn left counts test based multiple-dose” for “single-dose”, “experiment relative to MCAO group” for “experiment”; assay type: functional, organism-based
[19] = MRT (0 to infinity) in Sprague-Dawley rat at 10 mg/kg, iv measured after 24 hrs by LC-MS/MS analysis; assay type: ADME, organism-based; details: in vivo
[20] = biological target: Nitric oxide synthase 1 (Homo sapiens) (UniProt P29475); experiment: Inhibition of nNOS (unknown origin) assessed as nitric oxide production 1 uM by hemoglobin capture assay
Sequence of Nitric oxide synthase 1 (Homo sapiens) (P29475 whole entry): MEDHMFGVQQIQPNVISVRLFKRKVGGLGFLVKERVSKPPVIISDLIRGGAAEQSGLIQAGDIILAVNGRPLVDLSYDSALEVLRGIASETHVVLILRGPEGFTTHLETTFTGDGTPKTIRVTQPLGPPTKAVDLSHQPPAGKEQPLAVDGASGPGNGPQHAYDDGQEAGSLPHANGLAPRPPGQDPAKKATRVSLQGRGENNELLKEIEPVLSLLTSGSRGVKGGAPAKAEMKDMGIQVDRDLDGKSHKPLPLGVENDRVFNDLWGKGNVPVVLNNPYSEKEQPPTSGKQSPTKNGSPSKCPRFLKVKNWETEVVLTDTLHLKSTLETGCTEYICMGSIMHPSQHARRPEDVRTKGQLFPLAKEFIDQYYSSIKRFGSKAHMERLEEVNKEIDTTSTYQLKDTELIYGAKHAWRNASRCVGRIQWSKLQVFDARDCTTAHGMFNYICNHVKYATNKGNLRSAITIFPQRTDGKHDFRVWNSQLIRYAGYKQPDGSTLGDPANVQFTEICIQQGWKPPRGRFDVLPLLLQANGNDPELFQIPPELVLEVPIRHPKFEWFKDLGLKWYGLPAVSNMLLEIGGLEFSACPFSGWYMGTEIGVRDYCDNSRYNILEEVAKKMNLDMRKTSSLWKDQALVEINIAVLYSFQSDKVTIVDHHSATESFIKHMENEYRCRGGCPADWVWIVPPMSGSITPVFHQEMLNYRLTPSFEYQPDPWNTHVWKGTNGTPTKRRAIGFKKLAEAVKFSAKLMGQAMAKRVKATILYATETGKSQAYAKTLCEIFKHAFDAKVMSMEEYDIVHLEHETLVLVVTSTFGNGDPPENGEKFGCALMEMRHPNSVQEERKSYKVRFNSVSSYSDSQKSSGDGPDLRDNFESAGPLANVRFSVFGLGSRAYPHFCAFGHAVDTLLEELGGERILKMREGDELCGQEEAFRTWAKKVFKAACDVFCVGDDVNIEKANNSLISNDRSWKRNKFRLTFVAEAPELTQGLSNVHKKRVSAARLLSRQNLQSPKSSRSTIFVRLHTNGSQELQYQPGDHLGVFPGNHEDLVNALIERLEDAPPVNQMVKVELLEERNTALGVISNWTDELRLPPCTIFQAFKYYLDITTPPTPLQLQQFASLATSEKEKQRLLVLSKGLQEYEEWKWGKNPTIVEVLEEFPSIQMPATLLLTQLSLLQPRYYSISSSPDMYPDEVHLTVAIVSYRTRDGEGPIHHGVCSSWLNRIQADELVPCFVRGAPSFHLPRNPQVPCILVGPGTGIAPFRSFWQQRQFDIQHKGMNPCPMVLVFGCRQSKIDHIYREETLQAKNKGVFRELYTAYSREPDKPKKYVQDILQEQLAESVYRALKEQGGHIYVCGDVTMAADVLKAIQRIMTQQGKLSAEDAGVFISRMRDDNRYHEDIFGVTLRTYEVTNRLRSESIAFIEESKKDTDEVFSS

[21] = MRT (0 to t) in Sprague-Dawley rat at 10 mg/kg, iv measured after 24 hrs by LC-MS/MS analysis; assay type: ADME, organism-based; details: in vivo
Rattus norvegicus [22] = experiment: as §2, with “24 to 72” for “24”, “TTC staining based multiple-dose” for “single-dose”; assay type: functional, organism-based; details: time 26-74 hrs
[23] = Half life in Sprague-Dawley rat at 10 mg/kg, iv measured after 24 hrs by LC-MS/MS analysis; assay type: ADME, organism-based; details: in vivo
[24] = biological target: T1, Nitric oxide synthase 3 (Homo sapiens) (UniProt P29474); experiment: Inhibition of eNOS (unknown origin) assessed as nitric oxide production 1 uM by hemoglobin capture assay
T1 sequence (whole entry): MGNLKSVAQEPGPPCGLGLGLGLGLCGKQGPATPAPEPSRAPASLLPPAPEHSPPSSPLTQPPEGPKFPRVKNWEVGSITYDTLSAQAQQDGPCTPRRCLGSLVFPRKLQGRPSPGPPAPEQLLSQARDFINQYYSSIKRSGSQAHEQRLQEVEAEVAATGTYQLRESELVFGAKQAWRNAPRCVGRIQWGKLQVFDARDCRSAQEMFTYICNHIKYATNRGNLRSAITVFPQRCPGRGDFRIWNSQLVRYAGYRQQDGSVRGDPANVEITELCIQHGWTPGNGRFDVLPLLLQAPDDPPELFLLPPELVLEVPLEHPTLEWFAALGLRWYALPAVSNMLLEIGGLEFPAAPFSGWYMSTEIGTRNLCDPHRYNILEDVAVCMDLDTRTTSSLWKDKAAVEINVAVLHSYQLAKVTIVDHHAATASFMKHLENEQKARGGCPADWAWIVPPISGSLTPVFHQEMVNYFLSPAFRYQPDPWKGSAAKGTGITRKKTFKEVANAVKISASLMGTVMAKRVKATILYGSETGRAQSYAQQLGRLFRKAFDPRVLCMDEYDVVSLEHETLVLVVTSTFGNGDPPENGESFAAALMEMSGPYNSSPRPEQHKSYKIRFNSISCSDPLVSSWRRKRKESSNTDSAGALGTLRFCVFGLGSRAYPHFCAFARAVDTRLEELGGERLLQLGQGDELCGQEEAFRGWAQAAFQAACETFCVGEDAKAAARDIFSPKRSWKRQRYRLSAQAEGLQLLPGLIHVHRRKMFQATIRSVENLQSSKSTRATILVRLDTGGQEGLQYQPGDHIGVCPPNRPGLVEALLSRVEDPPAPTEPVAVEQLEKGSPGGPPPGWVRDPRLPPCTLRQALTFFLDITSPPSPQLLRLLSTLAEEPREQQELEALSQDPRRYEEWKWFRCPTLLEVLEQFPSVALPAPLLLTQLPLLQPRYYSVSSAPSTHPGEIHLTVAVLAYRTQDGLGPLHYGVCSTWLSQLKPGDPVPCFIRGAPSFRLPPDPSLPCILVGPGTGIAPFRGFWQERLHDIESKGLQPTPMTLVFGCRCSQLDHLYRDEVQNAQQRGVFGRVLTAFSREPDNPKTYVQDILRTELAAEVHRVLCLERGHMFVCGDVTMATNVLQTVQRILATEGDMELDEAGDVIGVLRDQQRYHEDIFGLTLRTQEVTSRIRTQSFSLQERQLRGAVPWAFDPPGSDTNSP

[25] = Metabolic stability in rat liver microsomes assessed as half life; assay type: ADME, Microsome
[26] = Stability in rat plasma assessed as half life; assay type: ADME, cell-free
SH-SY5Y [27] = experiment: Neuroprotective effect in human SH-SY5Y cells assessed as reduction in OGD/R-induced damage by measuring increase in cell viability at 1 uM incubated for 3 hrs followed by washout cells cultured in glucose and FBS-free medium measured after 24 hrs by CCK8 assay; assay type: functional, cell-based
Rattus norvegicus [28] = experiment: Anti-cerebral ischemia activity in rat tMCAO (transient middle cerebral artery occlusion) model assessed as reduction in cerebral infarct area at 9.98 mg/kg, iv treated after 2 hrs ischemia followed by reperfusion measured after 24 hrs of post-reperfusion by single-dose experiment; assay type: functional, organism-based; details: time 26.0 hrs
[29] = Ratio of drug concentration male Sprague-Dawley rat brain to blood at 3.4 mg/kg, iv measured after 24 hrs by LC-MS/MS analysis; assay type: ADME, organism-based
Rattus norvegicus [30] = experiment: Anti-cerebral ischemia activity in rat tMCAO (transient middle cerebral artery occlusion) model assessed as reduction in cerebral infarct area in presence of NBP at 6.58 mg/kg, iv treated after 2 hrs ischemia followed by reperfusion measured after 24 hrs of post-reperfusion by single-dose experiment; assay type: functional, organism-based; details: time 26.0 hrs
Rattus norvegicus [31] = experiment: Anti-cerebral ischemia activity in rat tMCAO (transient middle cerebral artery occlusion) model assessed as reduction in cerebral infarct area at 6.58 mg/kg, iv treated after 2 hrs ischemia followed by reperfusion measured after 24 hrs of post-reperfusion by single-dose experiment; assay type: functional, organism-based; details: time 26.0 hrs

SMILES	Activity (SH-SY5Y [1])	IC50 [2] [nM]	Activity (SH-SY5Y [3])	solubility [5] [mg/mL]	Activity (SH-SY5Y [8])	Activity (SH-SY5Y [9])	CL [10] [mL/min/kg]	Tmax [11] [min]	Vd [13] [L/kg]	Activity (BV-2)	MRT inf [19] [h]	MRT last at 24 h [21] [h]	Activity [24]	Activity (SH-SY5Y [27])	further results
CCCCC1OC(=O)c2cc(NCc3cccc(NC(C)=N)c3)ccc21 (centres undefined)	Active	275													
CCCCC1OC(=O)c2ccccc21 (racemic) [RAC-3-N-BUTYLPHTHALIDE]			Active	0.25 (≈ 1.31 mM)	Active	Active									Activity (Rattus norvegicus [4]): Active; Activity (Rattus norvegicus [6]): Active; Activity (Rattus norvegicus [7]): Active
CCCCC1OC(=O)c2cc(NCc3cccc(CNC(C)=N)c3)ccc21 (centres undefined)	Active	171	Active	30 (≈ 82.1 mM)	Active	Active	71.33	4.98	32.4	Active; Compound Exhibit Similar Protective Effects As Nbp And 1400W	1.91	1.62	inactive	Active; Compound Demonstrating Comparable Protective Effects To Nbp And 1400W	BBR [12]: 27.36%; Activity (Rattus norvegicus [14]): Active; Activity (Rattus norvegicus [15]): Active; Activity (Rattus norvegicus [16]): Active; Activity (Rattus norvegicus [17]): Active; Activity (Rattus norvegicus [18]): Active; inhibition [20]: 3.64%; Activity (Rattus norvegicus [22]): Active; Efficacy Of Compound Superior Than Nbp Group; half-life [23]: 5.21 h; half-life [25]: 2 h; half-life [26]: 23 h
CCCCC1OC(=O)c2cc(NC(=O)c3cccc(NC(C)=N)c3)ccc21 (centres undefined)	Active	474													
CCCCC1OC(=O)c2cc(NC(=O)c3cccc(CNC(C)=N)c3)ccc21 (centres undefined)	Active	245			Active					Active; Compound Exhibit Similar Protective Effects As Nbp And 1400W				Active; Compound Demonstrating Comparable Protective Effects To Nbp And 1400W	Activity (Rattus norvegicus [28]): Active
CC(=N)NCc1cccc(CN)c1 [1400W]			Active		Active	Active	90.12	4.98	21.7		1.11	0.96	inactive		BBR [29]: 10.96%; Activity (Rattus norvegicus [30]): Active; Activity (Rattus norvegicus [31]): Active
